Test results as given in ChEMBL document CHEMBL1145877, “5H-8,9-dimethoxy-5-(2-N,N-dimethylaminoethyl)dibenzo[c,h][1,6]naphthyridin-6-ones and related compounds as TOP1-targeting agents: influence of structure on the ternary cleavable complex formation” (Bioorg Med Chem Lett, 2003).

Target: T1, DNA topoisomerase 1 (Homo sapiens) (UniProt P11387)
T1 sequence (whole entry): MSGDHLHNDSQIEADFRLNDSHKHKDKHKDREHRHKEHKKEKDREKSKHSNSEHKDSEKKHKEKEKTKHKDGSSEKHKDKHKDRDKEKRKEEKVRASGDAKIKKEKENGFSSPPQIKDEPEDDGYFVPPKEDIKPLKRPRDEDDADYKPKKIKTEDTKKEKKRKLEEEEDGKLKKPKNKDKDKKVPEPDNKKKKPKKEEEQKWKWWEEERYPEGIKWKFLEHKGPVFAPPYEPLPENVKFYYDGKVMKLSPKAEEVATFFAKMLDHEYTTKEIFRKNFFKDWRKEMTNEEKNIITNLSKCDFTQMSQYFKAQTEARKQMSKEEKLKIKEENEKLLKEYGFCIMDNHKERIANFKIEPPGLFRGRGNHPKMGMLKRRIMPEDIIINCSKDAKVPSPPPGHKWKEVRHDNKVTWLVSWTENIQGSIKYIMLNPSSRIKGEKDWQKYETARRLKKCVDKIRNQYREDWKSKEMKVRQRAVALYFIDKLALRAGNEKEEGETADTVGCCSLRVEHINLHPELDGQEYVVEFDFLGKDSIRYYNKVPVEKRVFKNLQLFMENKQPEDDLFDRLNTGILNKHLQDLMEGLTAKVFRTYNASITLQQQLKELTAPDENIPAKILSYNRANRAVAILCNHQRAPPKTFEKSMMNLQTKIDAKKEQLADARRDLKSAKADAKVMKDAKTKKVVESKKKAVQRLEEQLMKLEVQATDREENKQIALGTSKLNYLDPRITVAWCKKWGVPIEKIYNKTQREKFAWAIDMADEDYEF
Experiment: Concentration relative to topotecan for topoisomerase DNA topoisomerase I cleavage

| REC | SMILES |
| --- | --- |
| 2 | COc1cc2c(=O)n(CCN(C)C)c3c4cc([N+](=O)[O-])ccc4ncc3c2cc1OC |
| 6 | COc1cc2c(=O)n(CCN(C)C)c3c4ccc([N+](=O)[O-])cc4ncc3c2cc1OC |

The remaining lines, values behind:

| SMILES | REC |
| --- | --- |
| COc1cc2c(=O)n(CCN(C)C)c3c(cnc4cccc([N+](=O)[O-])c43)c2cc1OC | 300 |
| COc1cc2c(=O)n(CCN(C)C)c3c4cccc([N+](=O)[O-])c4ncc3c2cc1OC | 9 |
| COc1cc2c(=O)n(CCCN(C)C)c3c4cc5c(cc4ncc3c2cc1OC)OCO5 | 1 |
| COc1cc2c(cc1OC)-c1cnc3cc4c(cc3c1N(CCN(C)C)C2)OCO4 | 0.8 |
| COc1cc2c(=O)n(CCN(C)C)c3c4cc5c(cc4nnc3c2cc1OC)OCO5 | 0.3 |
